The values below come from ChEMBL document CHEMBL1201862, “PubChem BioAssay data set” (2004).

The structures appear in SMILES notation.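 Growth conditions: 96-well plates. Treatment: test compound, 48 hours, 5 concentrations. Analysis: linear interpolation between bracketing concentrations; unreached endpoints set to highest concentration. GI50 = concentration required for 50% inhibition of growth.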 Active and inactive are the calls of the source. No stated cut-off is given here; in the data, active = GI50 up to about 1.1 µM and inactive = higher.

Common to all, as to experiment: NCI-60 cell line screen, 48 h
Test [1] relates to HCT-116.
For test [2], the system named is SN12C.
Test [3] deals with MCF7.
The test system of test [4] is SF-295.
Test [5] has as its system MDA-MB-231.
The subject of test [6] is SNB-75.
Test [7] concerns UACC-257.
For test [8], the system named is RPMI-8226.
The test system of test [9] is NCI-H23.
For test [10], the system named is SF-268.
Test [11] relates to U-251.
Test [12] deals with UO-31.
Test [13] deals with BT-549.
The test system of test [14] is MOLT-4.
Test [15] has as its system HOP-92.
The subject of test [16] is MDA-MB-435.
In test [17] the test system is CAKI-1.
In test [18] the test system is RXF 393.
The test system of test [19] is SW-620.
Test [20] has as its system MDA-N.

`COc1ccc(C2SCC(=O)N2NC(=O)C(C)Oc2ccccc2Cl)cc1` (stereo unspecified): the GI50 in test [1] is 40.3 µM (inactive); in test [2], 63.2 µM (inactive); in [3], 32.4 µM (inactive); in test [4], 45 µM (inactive); in test [5] it was 26.9 µM (inactive); in test [6], 56.6 µM (inactive). Besides, the GI50 in test [7] is > 100 µM (inactive); in test [8], 32.4 µM (inactive); in [9], 67.8 µM (inactive); in [10], > 100 µM (inactive); in test [11] it was 38 µM (inactive); in test [12], 70.5 µM (inactive). Besides, the GI50 was 85.7 µM (inactive) in test [13]; 27 µM (inactive) in [14]; 23.7 µM (inactive) in [15]; 33 µM (inactive) in test [16]; > 100 µM (inactive) in test [17]; 27.7 µM (inactive) in [18]. Besides, the GI50 in test [19] is 49.4 µM (inactive).
For `CCOC(=O)Cn1c(=O)c2nc(SC)sc2n(-c2ccc(C)cc2)c1=S`, the GI50 is > 71.8 µM (inactive) in test [1]; > 52.2 µM (inactive) in test [2]; > 100 µM (inactive) in [3]; > 71.6 µM (inactive) in [4]; 52.7 µM (inactive) in [5]; 9.71 µM (inactive) in test [6]. Also, the GI50 in [7] was > 100 µM (inactive); in test [20], > 100 µM (inactive); in test [8], > 100 µM (inactive); in test [9] it was > 49 µM (inactive); in test [10] it was 30.1 µM (inactive); in test [11], 24.5 µM (inactive). For the same compound, the GI50 is 48.6 µM (inactive) in test [12]; > 100 µM (inactive) in test [14]; 21.6 µM (inactive) in test [15]; 99.5 µM (inactive) in test [16]; > 100 µM (inactive) in [17]; 22.8 µM (inactive) in test [18]. For the same compound, the GI50 in test [19] is > 100 µM (inactive).
Regarding `O=C(c1ccccc1)c1ccc2c(c1)NC(=O)c1ccccc1SSc1ccccc1C(=O)N2`, the GI50 in test [1], in test [2], in [4], in test [5], in test [7] and in [20] was > 100 µM (inactive) throughout. Also, the GI50 in test [8], in test [9], in [10], in test [11], in test [12] and in test [13] was > 100 µM (inactive) throughout. Further, the GI50 in test [14], in test [15], in [16], in test [17], in test [18] and in test [19] was > 100 µM (inactive) in each case.
Consider `O=P1(Oc2ccc(Cl)cc2)OCCS1` (stereo unspecified), for which the GI50 in test [1], in test [2], in test [4], in [5], in test [6] and in test [7] was > 100 µM (inactive) each time. For the same compound, the GI50 in test [20], in test [8], in test [9], in test [10], in test [11] and in test [12] was > 100 µM (inactive) in each case. Also, the GI50 in test [13], in test [15], in test [18] and in [19] was > 100 µM (inactive) in each case.
Consider `O=C1Nc2ccccc2/C1=N/NC(=S)N1CCCCCC1`, for which the GI50 is 0.312 µM (active) in [1]; 1.42 µM (inactive) in test [2]; 1.96 µM (inactive) in [3]; 1 µM (active) in [4]; 0.56 µM (active) in test [5]; 1.69 µM (inactive) in test [6]. The GI50 was 2.54 µM (inactive) in test [7]; 2.8 µM (inactive) in [20]; 0.824 µM (active) in [8]; 1.21 µM (inactive) in test [9]; 0.322 µM (active) in test [10]; 1.11 µM (active) in test [11]. The GI50 in test [12] is 0.35 µM (active); in [14], 0.366 µM (active); in test [15], 1.82 µM (inactive); in test [16], 1.26 µM (inactive); in test [17] it was 1.43 µM (inactive); in [18] it was 0.644 µM (active). Further, in test [19], the GI50 is 0.594 µM (active).
Consider `O=C(CC(C(=O)c1ccsc1)c1ccccc1)c1cccs1` (stereo unspecified), for which the GI50 is 44.5 µM (inactive) in test [1]; > 100 µM (inactive) in [2]; 33 µM (inactive) in test [3]; 33.3 µM (inactive) in test [4]; 22.2 µM (inactive) in test [5]; 72.6 µM (inactive) in test [6]. Moreover, the GI50 in [7] is 61 µM (inactive); in [20], 69.2 µM (inactive); in test [8], > 100 µM (inactive); in test [9], 22 µM (inactive); in [10], > 100 µM (inactive); in test [11] it was 62.2 µM (inactive). Moreover, the GI50 was 19.6 µM (inactive) in test [12]; 49.9 µM (inactive) in test [14]; > 100 µM (inactive) in [15]; 40.6 µM (inactive) in test [16]; > 100 µM (inactive) in [17]; 59.3 µM (inactive) in test [18]. In addition, in test [19], the GI50 was > 100 µM (inactive).
Consider `CC(C)CCNC(=O)c1ccc(CNC(=O)/C=C/c2ccc3ccccc3c2)cc1`, for which the GI50 in test [1], in test [2], in test [3], in test [4], in test [5] and in [6] was > 100 µM (inactive) throughout. Further, the GI50 in test [7] is > 100 µM (inactive); in test [20], > 100 µM (inactive); in test [8], > 100 µM (inactive); in test [9], > 100 µM (inactive); in [10] it was > 100 µM (inactive); in [11] it was 36 µM (inactive). Also, the GI50 in test [12] was 44.1 µM (inactive); in test [14], > 100 µM (inactive); in test [15] it was > 100 µM (inactive); in test [16], > 100 µM (inactive); in [17] it was > 100 µM (inactive); in [18], > 100 µM (inactive). Further, the GI50 in [19] was > 100 µM (inactive).
For `COC1=CC(=O)C(O)=C(C[C@@]2(C)[C@@H]3CCC[C@H](COC(=O)CCCCCNC(=O)OC(C)(C)C)[C@@]3(C)CC[C@@H]2C)C1=O`, the GI50 is 6.55 µM (inactive) in [1]; > 10 µM (inactive) in test [2]; 4.22 µM (inactive) in test [3]; 5.28 µM (inactive) in [4]; > 10 µM (inactive) in test [5]; 5.11 µM (inactive) in test [6]. Further, the GI50 is > 10 µM (inactive) in [7]; > 10 µM (inactive) in test [20]; 3.54 µM (inactive) in test [8]; 5.85 µM (inactive) in test [10]; 3.9 µM (inactive) in test [11]; 6.47 µM (inactive) in [12]. For the same compound, the GI50 in [14] was 3.1 µM (inactive); in test [15], 3.9 µM (inactive); in test [16] it was > 10 µM (inactive); in test [17], 4.61 µM (inactive); in test [18], 3.67 µM (inactive); in [19], 6.34 µM (inactive).
`O=C1c2ccccc2NC2C(O)c3ccccc3N12` (stereo unspecified): the GI50 in test [1] is 30.5 µM (inactive); in test [2] it was 94.4 µM (inactive); in test [3], 40.2 µM (inactive); in test [4], 28.8 µM (inactive); in test [5], > 100 µM (inactive); in test [6], > 100 µM (inactive). Besides, the GI50 in test [7] is 15.3 µM (inactive); in [8], 10.1 µM (inactive); in test [9] it was 29.8 µM (inactive); in test [10] it was > 100 µM (inactive); in test [11], 30 µM (inactive); in [12] it was 40.8 µM (inactive). For the same compound, the GI50 is 58.2 µM (inactive) in test [13]; 21 µM (inactive) in test [14]; > 100 µM (inactive) in [15]; 17.7 µM (inactive) in test [16]; 34.8 µM (inactive) in test [17]; > 100 µM (inactive) in test [18]. Further, the GI50 in [19] was 9.46 µM (inactive).
For the compound `O=C(/N=N/c1ccc(Cl)cc1Cl)NNc1ccc(Cl)cc1Cl`, the GI50 in test [1] is 13.9 µM (inactive); in test [2], 16.4 µM (inactive); in test [5], 20.7 µM (inactive); in [6], 31.6 µM (inactive); in test [7], 19.6 µM (inactive); in test [20], 16.2 µM (inactive). Moreover, the GI50 in [8] is 19 µM (inactive); in test [9], 17.1 µM (inactive); in test [10], 30.1 µM (inactive); in test [11], 18.5 µM (inactive); in [12], 12 µM (inactive); in test [13], 14.8 µM (inactive). The GI50 in test [14] was 16.3 µM (inactive); in [16], 16.1 µM (inactive); in [17] it was 19.6 µM (inactive); in [19] it was 21.3 µM (inactive).
Turning to `C=C1C(=O)O[C@@H]2C=C(C)C3=CC(=O)[C@](C)(C[C@H](OC(=O)/C(C)=C\C)[C@@H]12)O3`, the GI50 was 0.282 µM (active) in [1]; 1.92 µM (inactive) in [2]; 0.41 µM (active) in test [3]; 2.42 µM (inactive) in test [4]; 0.759 µM (active) in test [5]; 13.5 µM (inactive) in [6]. The GI50 is 2.14 µM (inactive) in test [7]; 0.311 µM (active) in test [20]; 0.2 µM (active) in test [8]; 1.22 µM (inactive) in test [9]; 3.12 µM (inactive) in test [10]; 1.85 µM (inactive) in test [11]. The GI50 is 1.09 µM (active) in test [12]; 0.273 µM (active) in test [14]; 0.671 µM (active) in [15]; 0.813 µM (active) in [16]; 0.509 µM (active) in test [17]; 0.29 µM (active) in [18]. Besides, the GI50 in [19] is 0.306 µM (active).
